Assay results as given in patent US20250034116A1, “1,4-DIHETEROCYCLIC SUBSTITUTED AROMATIC RING OR AROMATIC HETEROCYCLIC COMPOUND AND USE THEREOF” (BeBetter Med Inc., priority 2022, published 2025).
Read-outs that look alike come from different tables or passages of the source.

How the values were obtained:
[1] = target: recombinant CYP4A11 (rCYP4A11) (Homo sapiens (Human), UniProt Q02928); assay: Inhibition of 20-HETE production by recombinant CYP4A11; assay type: biochemical
Procedure: (§1) Experimental principle: The inhibitory activity of 20-HETE production is evaluated by testing the inhibitory effects of the compound on human liver microsomes (HLM), rat liver microsomes (RLM), mouse liver microsomes (MLM), or […] CYP4 subtype enzymes (CYP4F2). This assay employs HLM, RLM, or MLM along with recombinant CYP4F2 (rCYP4F2) and recombinant CYP4A11 (rCYP4A11), which are […] CYP4 subtype enzymes, to detect the effects of the test compound at different concentrations on the metabolic rate of enzyme-specific substrates, to determine the inhibitory effects of the test compound on CYP enzymes in HLM, RLM, or MLM.
(§2) Experimental methods: Dissolve the test compound in DMSO, and subsequently dilute it with an acetonitrile and DMSO mixture (3:1). Add 2 μl of varying concentrations of the test compound and 100 μl of potassium phosphate buffer containing either liver microsomes or recombinant enzymes to a 96-well plate. After mixing well, transfer 30 μl to another well (in duplicate), add 15 μl of 400 μM substrate solution, and mix well again. Preheat at 37° C. for 10 minutes, and then add 15 μl of 6 mM NADPH and incubate at 37° C. for 25 minutes. After 25 minutes, add 160 μl of acetonitrile solution (containing 0.1 μg/ml internal standard) to stop the reaction. Mix well, centrifuge at 3500 g for 15 minutes, and then analyze the supernatant using LC-MS/MS.
(§3) Plot the compound concentration on the x-axis and the inhibition rate on the y-axis to draw the curve. Use GraphPad Prism 5 software to fit the curve and calculate the IC50. The formula is Y=Bottom+(Top−Bottom)/(1+10^((Log IC50−X)×HillSlope)). X represents the logarithmic concentration of the inhibitor, and Y represents the relative enzyme activity at a given inhibitor concentration (relative to the condition without the inhibitor).
(§4) Calculate the inhibition percentages at concentrations of 1000 nM, 500 nM, or 100 nM as well as the half-maximal inhibitory concentration (IC50) of the test compound from the above experiment.

[2] = system: CYP enzymes in mouse liver microsomes (MLM); assay: Inhibition of 20-HETE production in mouse liver microsomes (MLM); assay type: biochemical
Procedure, shortened: (§5)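 Liver microsomes (human or mouse) or recombinant CYP4F2 or CYP4A11 in potassium phosphate buffer mixed with compound, then with 400 μM substrate solution (stock). After 10 min preincubation at 37 °C, reaction started with 6 mM NADPH solution (stock) and run 25 min at 37 °C. 20-HETE formation quantified by LC-MS/MS; IC50 from a four-parameter Hill fit, with percent inhibition also reported at 1000, 500 or 100 nM.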

[3] = system: CYP enzymes in human liver microsomes (HLM); assay: Inhibition of 20-HETE production in human liver microsomes (HLM); assay type: biochemical
Procedure, shortened: as §5

[4] = target: recombinant CYP4F2 (rCYP4F2) (Homo sapiens (Human), UniProt P78329); assay: Inhibition of 20-HETE production by recombinant CYP4F2; assay type: biochemical; conditions: for inhibition at 0.1 µM: read-out: rCYP4F2 (% inh @ 100 nM)
recombinant CYP4F2 (rCYP4F2), sequence (P78329 5-520): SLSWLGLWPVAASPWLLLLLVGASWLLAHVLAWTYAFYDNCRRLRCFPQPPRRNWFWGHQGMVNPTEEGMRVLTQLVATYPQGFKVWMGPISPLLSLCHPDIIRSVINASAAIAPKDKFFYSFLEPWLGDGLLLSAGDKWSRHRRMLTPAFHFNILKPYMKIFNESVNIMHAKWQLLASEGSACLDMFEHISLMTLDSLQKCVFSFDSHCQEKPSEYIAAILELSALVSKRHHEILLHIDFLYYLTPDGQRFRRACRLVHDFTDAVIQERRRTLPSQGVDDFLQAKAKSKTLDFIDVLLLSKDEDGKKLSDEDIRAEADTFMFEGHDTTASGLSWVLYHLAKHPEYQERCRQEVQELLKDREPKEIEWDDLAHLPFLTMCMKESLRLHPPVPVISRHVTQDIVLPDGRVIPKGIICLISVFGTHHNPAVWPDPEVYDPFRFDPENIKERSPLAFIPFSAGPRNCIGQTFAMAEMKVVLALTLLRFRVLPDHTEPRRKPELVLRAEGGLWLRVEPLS
Procedure: as §1, §2, §3, §4

[5] = Pharmacokinetic (PK) experiment, oral administration in rats; assay type: in vivo, Male SD rats; conditions: 20 mg/kg; for AUC(0-inf) / Cmax / Tmax / half-life / AUC(0-t): male, SD, rat, plasma; for AUC(0-t): read-out: AUC0-24
Procedure, shortened: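 Fasted male SD rats (180-250 g) received 20 mg/kg orally in 30% sulfobutylether-β-cyclodextrin. Tail-vein blood sampled 15 min to 24 h post-dose into K2-EDTA; plasma protein-precipitated with acetonitrile containing internal standard and analysed by LC-MS/MS.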

[6] = system: diet-induced obesity (DIO) mouse model; assay: Experiment 2: compound 2 and 4, weight loss and blood glucose lowering in DIO mouse model; assay type: in vivo, Male C57BL/6J mice
Excerpt: Experiment 2 was to study the effects of compound 2 and 4 on weight loss and blood glucose lowering in a diet-induced obesity (DIO) mouse model. Male C57BL/6J mice were purchased from Zhuhai BST Biotechnology Co., Ltd. and housed in a barrier system animal facility. Animals were randomly divided into 4 groups: normal control group, DIO model control group, DIO model compound 2 treatment group, and DIO model compound 4 treatment group, with 4-5 animals per group. The model control group and treatment groups were first fed with high-fat diet (HFD) for 9 weeks (day 63), and then the treatment groups were orally administered with compound 2 or compound 4 at a dose of 50 mg/kg once daily for 4 consecutive weeks, while continuing to receive HFD. Animal weights were measured weekly, and on the last day of treatment, they were fasted overnight but allowed access to water before an oral glucose tolerance test (OGTT).

[7] = system: CYP enzymes in rat liver microsomes (RLM); assay: Inhibition of 20-HETE production in rat liver microsomes (RLM); assay type: biochemical
Procedure, shortened: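 Test compounds were dissolved in DMSO, diluted in acetonitrile/DMSO (3:1), and 2 μl was mixed with 100 μl potassium phosphate buffer containing rat liver microsomes in a 96-well plate. Duplicate 30 μl aliquots received 15 μl of 400 μM substrate, were preheated at 37° C. for 10 minutes, then started with 15 μl of 6 mM NADPH for 25 minutes. LC-MS/MS measured 20-HETE formation.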

[8] = system: diet-induced obesity (DIO) mouse model; assay: Experiment 4: weight loss of compound 2 compared with semaglutide in DIO mouse model; assay type: in vivo, Male C57BL/6J mice; conditions: 30 nmol/kg subcutaneously once daily
Excerpt: Experiment 4 was to compare the weight loss effects of compound 2 with that of semaglutide in a diet-induced obesity (DIO) mouse model. Male C57BL/6J mice were purchased from Vital River Laboratories (Shanghai) Co., Ltd. and housed in a barrier system animal facility. Animals were randomly divided into 4 groups: normal control group, DIO model control group, compound 2 treatment group, and semaglutide treatment group, with 6 animals per group. The model control group and treatment groups were first fed with high-fat diet (HFD) for 18 weeks, after which the treatment groups were administered with compound 2 or semaglutide, respectively. Compound 2 was administered orally at a dose of 30 mg/kg once daily for 14 consecutive weeks, while semaglutide was administered subcutaneously at a dose of 30 nmol/kg once daily. After 7 weeks of semaglutide treatment, the semaglutide treatment group was switched to compound 2 treatment for another 7 weeks.

[9] = cited from earlier work
[10] = system: cyclooxygenase and lipoxygenase; conditions: cited from earlier work
20-HETE = conditions: read-out: inhibitory activity (inhibitor of 20-HETE); cited from earlier work
[11] = cited from earlier work; remark: listed apart in the source
[12] = system: diet-induced obesity (DIO) mouse model; assay: Experiment 1: compound 1, weight loss and blood glucose lowering in DIO mouse model; assay type: in vivo, Male C57BL/6J mice
Procedure: Experiment 1 was to investigate the effects of compound 1 on weight loss and blood glucose lowering in a diet-induced obesity (DIO) mouse model. Male C57BL/6J mice were purchased from Zhuhai BST Biotechnology Co., Ltd. and housed in a barrier system animal facility. The animals were randomly divided into 3 groups: normal control group, DIO model control group, and DIO model compound 1 treatment group, with 6 animals per group. The treatment group received compound 1 orally at a dose of 100 mg/kg on the first day of high-fat diet (HFD) feeding, once daily for 32 consecutive days. Animal weights were measured weekly, and on day 33, they were fasted overnight but allowed access to water before an oral glucose tolerance test (OGTT).

Cyp4a14−/− mice = conditions: cited from earlier work
[13] = system: Cyp4a 14−/− hypertensive mice; conditions: Cyp4a14−/− hypertensive mice; cited from earlier work
[14] = 50 mg/kg orally once daily for 4 weeks, DIO mice

recombinant CYP4A11 (rCYP4A11), sequence (Q02928 5-519): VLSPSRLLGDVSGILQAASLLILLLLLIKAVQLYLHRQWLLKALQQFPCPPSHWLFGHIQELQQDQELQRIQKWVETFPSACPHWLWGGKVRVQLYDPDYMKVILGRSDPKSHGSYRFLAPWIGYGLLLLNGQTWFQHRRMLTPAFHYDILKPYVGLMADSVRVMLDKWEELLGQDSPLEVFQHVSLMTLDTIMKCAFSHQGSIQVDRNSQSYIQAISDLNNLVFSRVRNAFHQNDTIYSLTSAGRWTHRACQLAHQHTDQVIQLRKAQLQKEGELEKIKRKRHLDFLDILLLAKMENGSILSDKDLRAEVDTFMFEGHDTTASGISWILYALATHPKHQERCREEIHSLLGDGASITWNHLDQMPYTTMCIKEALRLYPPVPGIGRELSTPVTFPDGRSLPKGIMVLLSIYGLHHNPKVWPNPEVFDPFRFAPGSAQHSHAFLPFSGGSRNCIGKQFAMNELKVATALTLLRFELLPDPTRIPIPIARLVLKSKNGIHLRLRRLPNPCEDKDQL

Compound | IC50 [2] [nM] | HLM (% inh @ 500 nM) [3] [%] | IC50 [4] [nM] | inhibition at 0.1 µM [4] [%] | absorption and blood exposure after oral administration (in words) [5] | AUC(0-inf) [5] [ng·h/mL] | Cmax [5] [ng/mL] | Tmax [5] [h] | half-life [5] [h] | AUC(0-t) [5] [ng·h/mL] | IC50 [7] [nM] | RLM (% inh @ 500 nM) [7] [%] | solubility [11] | also measured
O=C1CCCN1CC1CCN(c2ccc(-c3cn[nH]c3)c(F)c2F)CC1 [Compound 4, 1-((1-(2,3-difluoro-4-(1H-pyrazol-4-yl)phenyl)piperidin-4-yl)methyl)pyrrolidin-2-one] | 1350 | 85.53 | 18.8 | 61.7 | well absorbed and exhibit high blood exposure | 59000 | 7260 | 1.33 | 3.9 | 58100 | 89.5 | 72.00 |  | IC50 [1]: 53.7 nM; IC50 [3]: 25.8 nM; fasting blood glucose [6, 14]: inhibit the increase in fasting blood glucose; glucose metabolism (OGTT) [6, 14]: enhance glucose metabolism; body weight decrease, of the pre-administration weight ([6]; 50 mg/kg orally once daily, first week of administration, after 9 weeks HFD): 12%-16%
semaglutide [reference compound] |  |  |  |  |  |  |  |  |  |  |  |  |  | maximum weight-loss effect, decrease compared to the pre-treatment weight ([8]; after 2 weeks): approximately 20%; food intake, fraction of the model control group ([8]; first 2 weeks): ⅓ to ½
CCCCc1ccc(N=CNO)c(C)c1 [HET0016] |  |  |  |  |  |  |  |  |  |  |  |  | poor | half-life [9]: short; effect on the activity of cyclooxygenase and lipoxygenase [10]: no effect; IC50 (20-HETE): 8.9 nM
O=C1CCCN1CC1CCN(c2ccc(-c3cn[nH]c3)cc2)CC1 [Compound 1, 1-((1-(4-(1H-pyrazol-4-yl)phenyl)piperidin-4-yl)methyl)pyrrolidin-2-one] | 1220 | 79.83 | 24 | 59.5 | well absorbed and exhibit high blood exposure | 125000 | 9980 | 1.5 | 7.23 | 113000 | 224 | 54.99 |  | inhibition at 0.1 µM ([1]; read-out: rCYP4A11 (% inh @ 100 nM)): 35.4%; body weight ([12]; 100 mg/kg orally once daily for 32 days from first day of HFD): stabilized around the initial weight after 1 week and remained stable thereafter; fasting blood glucose ([12]; 100 mg/kg orally once daily for 32 days, DIO mice): inhibit the increase in fasting blood glucose; glucose metabolism (OGTT) ([12]; 100 mg/kg orally once daily for 32 days, OGTT day 33): enhance glucose metabolism
COCCOCCOCCOCCOCCOCCOC(=O)CCCC/C=C\CCCCCCC/C=C\CCCCO [Compound 20-SOLA] |  |  |  |  |  |  |  |  |  |  |  |  | more water-soluble | hyperglycemia and hyperinsulinemia (Cyp4a14−/− mice): improve hyperglycemia and hyperinsulinemia; weight gain induced by a high-fat diet (Cyp4a14−/− mice): reduce the weight gain; blood pressure [13]: restore blood pressure to normal
